Legend:
RS4;11 cells = assay: AML cell proliferation inhibitory activity (CellTiter-Glo); assay type: cell-based; conditions: Homo sapiens, 72 hours
Protocol: (§1) The inhibitory activities of the example compounds according to the present invention on the proliferation of acute myeloid leukemia (AML) cells expressing the FLT3 mutant gene were evaluated. Specifically, RS4;11 and MV4-11 cells as acute myeloid leukemia cells expressing the FLT3 mutant gene were cultured in RPMI-1640 (Invitrogen) adding 10% FBS. The cells were seeded into each well of a clear bottom white 96-well plate (Corning) at 3000 to 5000 cells 24 hours before compound treatment. The compound was diluted in DMSO (diluted each three-fold, to a total of 12 concentrations) and injected at 0.5 μL each so as to be a final concentration of 0.3 nM to 50 μM. After 72 hours of the compound treatment, they were treated with CellTiter-Glo Luminescent Cell Viability assay (Promega) and stored at room temperature for 10 minutes, and luminescence intensities were measured with a reader (SynergyNeo, Biotek) to count viable cells. Each experiment was performed three times repeatedly. The result values were calculated as the cell growth rate (%) compared to the control treated with the solvent. The graph was derived using the GraphPad Prism program (version 5.0), the GI50 (nM) values were calculated, and the results were shown in Table 3 below.

MV4-11 cells = assay: as above; assay type: cell-based; conditions: Homo sapiens, 72 hours
Protocol: as §1

human FLT3-ITD enzyme = target: T1, human FLT3-ITD enzyme (Homo sapiens, UniProt P36888); assay: FLT3 enzyme inhibitory ability (ADP-Glo kinase assay); assay type: biochemical; conditions: human FLT3-ITD enzyme 10 ng, ATP 10 μM, 25° C. 1 hour
T1 sequence (P36888 1-993): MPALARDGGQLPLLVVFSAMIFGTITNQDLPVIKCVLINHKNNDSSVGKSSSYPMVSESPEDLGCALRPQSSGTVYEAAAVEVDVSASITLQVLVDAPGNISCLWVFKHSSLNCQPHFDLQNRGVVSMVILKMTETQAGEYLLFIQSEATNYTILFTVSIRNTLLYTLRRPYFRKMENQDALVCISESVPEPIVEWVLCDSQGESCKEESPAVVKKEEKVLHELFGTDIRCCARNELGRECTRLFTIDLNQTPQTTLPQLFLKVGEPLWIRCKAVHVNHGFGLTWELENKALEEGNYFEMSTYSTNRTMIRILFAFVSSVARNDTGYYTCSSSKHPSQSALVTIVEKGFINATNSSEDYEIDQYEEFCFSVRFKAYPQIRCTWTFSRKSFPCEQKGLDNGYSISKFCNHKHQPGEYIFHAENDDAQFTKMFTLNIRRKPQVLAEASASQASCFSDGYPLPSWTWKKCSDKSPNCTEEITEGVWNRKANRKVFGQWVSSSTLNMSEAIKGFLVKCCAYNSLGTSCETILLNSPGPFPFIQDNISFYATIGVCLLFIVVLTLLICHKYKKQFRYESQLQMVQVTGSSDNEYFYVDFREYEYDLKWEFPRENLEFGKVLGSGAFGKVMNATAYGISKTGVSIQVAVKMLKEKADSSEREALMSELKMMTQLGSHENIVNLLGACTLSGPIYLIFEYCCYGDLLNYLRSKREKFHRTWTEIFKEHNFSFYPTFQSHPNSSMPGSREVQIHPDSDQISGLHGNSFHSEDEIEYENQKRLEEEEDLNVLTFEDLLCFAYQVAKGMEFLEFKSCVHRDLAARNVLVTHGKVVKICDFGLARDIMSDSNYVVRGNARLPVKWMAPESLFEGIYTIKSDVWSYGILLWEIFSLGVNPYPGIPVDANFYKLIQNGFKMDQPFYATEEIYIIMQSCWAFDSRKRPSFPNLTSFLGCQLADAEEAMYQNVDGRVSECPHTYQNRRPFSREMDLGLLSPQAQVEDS
Summary of the method: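 Purified human FLT3-ITD (10 ng) with 10 μM ATP and specific substrate in 40 mM Tris-HCl pH 7.4, 20 mM MgCl2, 0.5 mg/mL BSA, 50 μM DTT, 1 h at 25 °C. ADP formation read by ADP-Glo luminescence; IC50 (nM) versus solvent-treated control.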

MCF-7 cells = assay: Breast cancer cell line proliferation inhibitory activity (CellTiter-Glo 2.0); assay type: cell-based; conditions: Homo sapiens, MCF7, 120 hours
Summary of the method: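 MCF-7 cells exposed to a 12-point, 3-fold dilution series (final 0.00005–10 μM) for 120 h at 37 °C. Viability read by CellTiter-Glo 2.0 luminescence, expressed as percent of vehicle-treated cells. GI50 (nM) derived from the curves.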

human GST-HPK1 (1-346) = target: T2, human GST-HPK1 (1-346) (Homo sapiens, UniProt Q92918); assay: HPK1 enzyme inhibitory ability (ADP-Glo kinase assay); assay type: biochemical; conditions: human GST-HPK1 3 ng, ATP 3 uM, 25° C. 2 hours
T2 construct: purified human GST-HPK1 (1-346, Signalchem) enzyme; purchased Signalchem
T2 sequence (Q92918 1-346): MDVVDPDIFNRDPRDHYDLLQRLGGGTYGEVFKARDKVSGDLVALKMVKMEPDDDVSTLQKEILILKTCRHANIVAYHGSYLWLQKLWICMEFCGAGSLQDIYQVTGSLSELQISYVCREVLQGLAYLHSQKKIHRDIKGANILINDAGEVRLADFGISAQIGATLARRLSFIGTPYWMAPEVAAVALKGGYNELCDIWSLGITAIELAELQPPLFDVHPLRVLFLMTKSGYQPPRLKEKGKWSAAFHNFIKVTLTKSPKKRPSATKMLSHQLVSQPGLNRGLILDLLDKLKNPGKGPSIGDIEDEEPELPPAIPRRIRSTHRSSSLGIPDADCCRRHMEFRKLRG
Summary of the method: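 Human GST-HPK1(1-346), 3 ng, reacted with 3 uM ATP and specific substrate in 40 mM Tris-HCl pH 7.4, 20 mM MgCl2, 0.5 mg/mL BSA, 50 uM DTT for 2 h at 25° C. ADP-Glo luminescence read; IC50 (nM) relative to untreated solvent control.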

Row | SMILES | GI50 (RS4;11 cells) [nM] | GI50 (MV4-11 cells) [nM] | IC50 (human FLT3-ITD enzyme) [nM] | GI50 (MCF-7 cells) [nM] | IC50 (human GST-HPK1 (1-346)) [nM]
1 | CN1CCN(c2ccc(Nc3nc(N4N=CCC4c4ccccn4)c4sccc4n3)cc2)CC1 (stereo not drawn) [Example 33, N-(4-(4-methylpiperazin-1-yl)phenyl)-4-(5-(pyridin-2-yl)-4,5-dihydro-1H-pyrazol-1-yl)thieno[3,2-d]pyrimidin-2-amine] | > 500 | > 500 | > 500 | – | –
2 | CN1CCN(c2ccc(Nc3nc(N4N=CCC4c4cc5ccccc5cn4)c4sccc4n3)cc2)CC1 (stereo not drawn) [Example 32, 4-(5-(isoquinolin-3-yl)-4,5-dihydro-1H-pyrazol-1-yl)-N-(4-(4-methylpiperazin-1-yl)phenyl)thieno[3,2-d]pyrimidin-2-amine] | > 500 | > 500 | > 500 | – | –
3 | CCc1cc(Nc2nc(N3N=CCC3c3ccccc3)c3sccc3n2)cc(OCCN2CCC(O)CC2)c1 (stereo not drawn) [Example 16, 1-(2-(3-ethyl-5-((4-(5-phenyl-4,5-dihydro-1H-pyrazol-1-yl)thieno[3,2-d]pyrimidin-2-yl)amino)phenoxy)ethyl)piperidin-4-ol] | – | > 500 | > 500 | > 500 | > 500
4 | CN(C)C1CCN(c2ccc(Nc3nc(N4OCC[C@H]4c4ccccc4)c4cc[nH]c4n3)cc2)CC1 [Example 83, (S)-N-(4-(4-(dimethylamino)piperidin-1-yl)phenyl)-4-(3-phenylisoxazolidin-2-yl)-7H-pyrrolo[2,3-d]pyrimidin-2-amine] | – | ≥ 250 | ≥ 250 | > 500 | ≥ 250
5 | C1=NN(c2nc(Nc3ccc(N4CCC(N5CCOCC5)CC4)cc3)nc3ccsc23)C(c2ccccc2)C1 (stereo not drawn) [Example 9, N-(4-(4-morpholinopiperidin-1-yl)phenyl)-4-(5-phenyl-4,5-dihydro-1H-pyrazol-1-yl)thieno[3,2-d]pyrimidin-2-amine] | > 500 | > 500 | > 500 | – | –
6 | CN1CCN(C2CCN(c3ccc(Nc4nc(N5OCC[C@H]5c5ccccc5)c5c(C#N)c[nH]c5n4)cc3)CC2)CC1 [Example 119, (S)-2-((4-(4-(4-methylpiperazin-1-yl)piperidin-1-yl)phenyl)amino)-4-(3-phenylisoxazolidin-2-yl)-7H-pyrrolo[2,3-d]pyrimidine-5-carbonitrile] | – | ≥ 250 | ≥ 250 | > 500 | ≥ 250
7 | COc1cc(Nc2nc(N3N=CCC3c3ccccc3)c3cc[nH]c3n2)ccc1N1CCC(N2CCN(C)CC2)CC1 (stereo not drawn) [Example 69, N-(3-methoxy-4-(4-(4-methylpiperazin-1-yl)piperidin-1-yl)phenyl)-4-(5-phenyl-4,5-dihydro-1H-pyrazol-1-yl)-7H-pyrrolo[2,3-d]pyrimidin-2-amine] | – | > 500 | 250 to 500 | > 500 | > 500
8 | CN1CCN(c2ccc(Nc3nc(N4OCC[C@H]4c4ccccc4)c4sccc4n3)cc2)CC1 [Example 59, (S)-N-(4-(4-methylpiperazin-1-yl)phenyl)-4-(3-phenylisoxazolidin-2-yl)thieno[3,2-d]pyrimidin-2-amine] | – | > 500 | ≥ 250 | > 500 | > 500
9 | COc1cc(C(=O)N2CCOCC2)ccc1Nc1nc(N2OCC[C@H]2c2ccccc2)c2cc[nH]c2n1 [Example 96, (S)-(3-methoxy-4-((4-(3-phenylisoxazolidin-2-yl)-7H-pyrrolo[2,3-d]pyrimidin-2-yl)amino)phenyl)(morpholino)methanone] | – | > 500 | ≥ 250 | > 500 | > 500
10 | CN1CCN(c2ccc(Nc3nc(N4OCC[C@H]4c4cccnc4)c4cc[nH]c4n3)cc2)CC1 [Example 78, (S)-N-(4-(4-methylpiperazin-1-yl)phenyl)-4-(3-(pyridin-3-yl)isoxazolidin-2-yl)-7H-pyrrolo[2,3-d]pyrimidin-2-amine] | – | > 500 | ≥ 250 | > 500 | ≥ 250

Continued, values first:

Row | GI50 (RS4;11 cells) [nM] | GI50 (MV4-11 cells) [nM] | IC50 (human FLT3-ITD enzyme) [nM] | GI50 (MCF-7 cells) [nM] | IC50 (human GST-HPK1 (1-346)) [nM] | SMILES
11 | > 500 | 250 to 500 | > 500 | – | – | CCN(CC)CCOc1c(C)cc(Nc2nc(N3N=CCC3c3ccccc3)c3sccc3n2)cc1C (stereo not drawn) [Example 46, N-(4-(2-(diethylamino)ethoxy)-3,5-dimethylphenyl)-4-(5-phenyl-4,5-dihydro-1H-pyrazol-1-yl)thieno[3,2-d]pyrimidin-2-amine]
12 | > 500 | ≥ 250 | 250 to 500 | – | – | CN(C)CCN(C)c1ccc(Nc2nc(N3N=CCC3c3ccccc3)c3sccc3n2)cc1 (stereo not drawn) [Example 2, N-(2-(dimethylamino)ethyl)-N-methyl-N-(4-(5-phenyl-4,5-dihydro-1H-pyrazol-1-yl)thieno[3,2-d]pyrimidin-2-yl)benzene-1,4-diamine]
13 | > 500 | ≥ 250 | > 500 | – | – | COc1cc(Nc2nc(N3N=CCC3c3ccccc3)c3sccc3n2)cc(OC)c1OC (stereo not drawn) [Example 51, 4-(5-phenyl-4,5-dihydro-1H-pyrazol-1-yl)-N-(3,4,5-trimethoxyphenyl)thieno[3,2-d]pyrimidin-2-amine]
14 | – | ≥ 250 | ≥ 250 | ≥ 250 | ≥ 250 | N#Cc1c[nH]c2nc(Nc3ccc4c(c3)CCNC4)nc(N3OCC[C@H]3c3ccccc3)c12 [Example 120, (S)-4-(3-phenylisoxazolidin-2-yl)-2-((1,2,3,4-tetrahydroisoquinolin-6-yl)amino)-7H-pyrrolo[2,3-d]pyrimidine-5-carbonitrile]
15 | > 500 | ≥ 250 | ≥ 250 | – | – | CCN1CCN(c2ccc(Nc3nc(N4N=CCC4c4ccccc4)c4sccc4n3)c(OC)c2)CC1 (stereo not drawn) [Example 41, N-(4-(4-ethylpiperazin-1-yl)-2-methoxyphenyl)-4-(5-phenyl-4,5-dihydro-1H-pyrazol-1-yl)thieno[3,2-d]pyrimidin-2-amine]
16 | – | 250 to 500 | ≥ 250 | > 500 | ≥ 250 | CN1CCc2ccc(Nc3nc(N4OCC[C@H]4c4ccccc4)c4cc[nH]c4n3)cc2C1 [Example 105, (S)-2-methyl-N-(4-(3-phenylisoxazolidin-2-yl)-7H-pyrrolo[2,3-d]pyrimidin-2-yl)-1,2,3,4-tetrahydroisoquinolin-7-amine]

From patent US20220242870A1, “HETEROCYCLE-FUSED PYRIMIDINE DERIVATIVE AND USE THEREOF” (VORONOI Inc., priority 2019, published 2022)
